O=c1c2ccccc2nc2n1CCc1c-2[nH]c2ccccc12
solubility (mole fraction)
Conditions | 283.15 K | 288.15 K | 293.15 K | 298.15 K | 303.15 K | 308.15 K | 313.15 K | 318.15 K | 323.15 K
in acetone | 0.00069 | 0.00079 | 0.000929 | 0.00106 | 0.00122 | 0.00139 | 0.00158 | 0.0018 | 0.00205
in ethanol | 0.000132 | 0.00016 | 0.000191 | 0.000229 | 0.000271 | 0.00032 | 0.000375 | 0.00044 | 0.000509
in isopropanol | 7.46e-05 | 9.8e-05 | 0.000124 | 0.00016 | 0.000201 | 0.000257 | 0.000318 | 0.000396 | 0.000488
in methanol | 6.1e-05 | 7.33e-05 | 8.79e-05 | 0.000105 | 0.000125 | 0.000148 | 0.000172 | 0.000201 | 0.000234
in water | 1.45e-09 | 2.02e-09 | 2.84e-09 | 3.97e-09 | 5.49e-09 | 7.6e-09 | 1.04e-08 | 1.38e-08 | 1.85e-08

From BigSolDB 2.1
